Read-outs that look alike come from different tables or passages of the source. One block for each molecule: values may come before it.
What was measured:
tubulin [1] = details: reported by David et al.; cited from earlier work
tubulin [2] = format: binding, bovine; details: for maximum stoichiometry of compound incorporation into aberrant polymer: 80 μM compound; for compound incorporated into induced polymers, as little as: substoichiometric reactions (abstract)
tubulin [3] = experiment: Polymer formation without GTP at 0 °C; format: biochemical, bovine; details: no GTP; for spiral formation (centrifugation study, Fig. 7A): 10 μM tubulin, concentrations up to 30 μM; for % tubulin in polymer ± SE: single compound 30 μM, 20 min, 1.0 mg/mL tubulin
tubulin [4] = molecular target: tubulin (Bos taurus, UniProt P81947+Q6B856); experiment: Aberrant tubulin assembly; details: for extent of aberrant assembly reaction (turbidity), % of its maximum: within 20 min at 0 °C, 10 μM compound, 10 μM tubulin, 0.6 M glutamate, 1.0 mM MgCl2, 50 μM GTP
Chain of tubulin (Bos taurus, UniProt P81947+Q6B856) (P81947 whole entry): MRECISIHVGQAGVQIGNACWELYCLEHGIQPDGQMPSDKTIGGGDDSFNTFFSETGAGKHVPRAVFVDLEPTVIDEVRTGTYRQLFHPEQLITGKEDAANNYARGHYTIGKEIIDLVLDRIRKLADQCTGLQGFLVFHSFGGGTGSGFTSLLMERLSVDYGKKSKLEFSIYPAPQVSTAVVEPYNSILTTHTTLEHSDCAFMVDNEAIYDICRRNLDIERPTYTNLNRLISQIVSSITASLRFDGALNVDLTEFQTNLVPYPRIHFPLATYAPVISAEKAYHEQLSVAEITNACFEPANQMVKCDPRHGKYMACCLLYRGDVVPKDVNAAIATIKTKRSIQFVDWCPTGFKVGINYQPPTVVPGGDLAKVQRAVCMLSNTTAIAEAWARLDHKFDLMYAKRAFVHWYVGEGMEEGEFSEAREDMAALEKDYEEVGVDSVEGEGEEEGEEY
Chain of tubulin (Bos taurus, UniProt P81947+Q6B856) (Q6B856 whole entry): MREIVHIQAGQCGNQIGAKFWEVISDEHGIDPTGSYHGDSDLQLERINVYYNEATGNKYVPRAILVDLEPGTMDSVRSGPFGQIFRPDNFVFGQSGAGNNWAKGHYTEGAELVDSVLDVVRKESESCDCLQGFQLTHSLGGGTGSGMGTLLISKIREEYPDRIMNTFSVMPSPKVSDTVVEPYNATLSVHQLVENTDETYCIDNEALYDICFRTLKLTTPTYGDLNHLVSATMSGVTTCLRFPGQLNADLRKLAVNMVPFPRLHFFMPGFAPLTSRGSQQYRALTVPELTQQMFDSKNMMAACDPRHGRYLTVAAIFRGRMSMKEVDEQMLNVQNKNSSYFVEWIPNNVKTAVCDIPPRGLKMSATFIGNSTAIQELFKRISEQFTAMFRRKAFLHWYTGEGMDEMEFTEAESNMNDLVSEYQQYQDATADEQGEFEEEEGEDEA

αβ-tubulin dimer = experiment: Binding of radiolabeled compounds to αβ-tubulin dimer; set-up: species or system bovine; details: radiolabeled compound
tubulin [5] = experiment: Inhibition of MAP-dependent microtubule assembly; format: biochemical, bovine
cultured cells = details: cited from earlier work
[6] = 5 μM compound, 10 μM tubulin, 22 °C, 30 min
[7] = 10 μM radiolabeled ligand alone (Table 3)
[8] = compound and tubulin equimolar (10 μM each)

Molecule: COc1cc2cc(c1Cl)N(C)C(=O)C[C@H](OC(=O)[C@H](C)N(C)C(C)=O)[C@]1(C)O[C@H]1[C@H](C)[C@@H]1C[C@@](O)(NC(=O)O1)[C@H](OC)/C=C/C=C(\C)C2 [Maytansine]
inhibition of (−)-rhazinilam aberrant assembly reaction (tubulin [1]): inhibited

delay of aberrant assembly after addition of compound (tubulin [4]; 0 °C, 0.6 M monosodium glutamate, 50 μM GTP, 1 mM MgCl2, 2% dimethyl sulfoxide): about 1 min
extent of aberrant assembly reaction (turbidity), % of its maximum (tubulin [4]): 30–35%
binding to the αβ-tubulin dimer (αβ-tubulin dimer): unable to demonstrate binding
Molecule: N#Cc1c(-c2ccc(F)cc2)c(-c2ccc(F)cc2)nn(Cc2nn[nH]n2)c1=O [NSC 613241]
% of the tubulin in polymer pellet (tubulin [2]; [6]): 73%
% tubulin recovered in pellet (tubulin [2]; 10 μM [3H](−)-rhazinilam plus 80 μM nonradiolabeled inhibitor): 89 ± 6.4%
% tubulin recovered in pellet (tubulin [2]; [7]): 72 ± 5.4%
Ligand bound/tubulin in aberrant polymer ± SD (tubulin [2]; 10 μM radiolabeled ligand alone, 22 °C, 30 min (Table 3)): 0.15 ± 0.013
% of the tubulin in polymer pellet (tubulin [2]; 20 μM compound, 10 μM tubulin): about 90%
% of the tubulin in polymer (tubulin [2]; 40 μM compound, 10 μM tubulin): ~100%
stoichiometry of compound to tubulin in the pellets (tubulin [2]; 40 μM compound, 10 μM tubulin): 0.42
maximum stoichiometry of compound incorporation into aberrant polymer (tubulin [2]; 10 μM tubulin): 0.62
stoichiometry of compound to tubulin in the pellets (tubulin [2]; [8]): 0.11
compound incorporated into induced polymers, as little as (tubulin [2]): 0.1–0.2 mol compound/mol of tubulin
spiral formation (centrifugation study, Fig. 7A) (tubulin [3]): minimal
% tubulin in polymer ± SE (tubulin [3]): 0 ± 2%

Molecule: Cc1nn(CC(=O)O)c(=O)c(C#N)c1-c1ccccc1 [NSC 608600]
effect on microtubule assembly (tubulin [5]): no significant effect on microtubule assembly

extent of aberrant assembly reaction (turbidity), % of its maximum (tubulin [4]): little or no change in turbidity
binding to the αβ-tubulin dimer (αβ-tubulin dimer): unable to demonstrate binding
Molecule: (−)-Rhazinilam [reference compound]
% of the tubulin in polymer pellet (tubulin [2]; [6]): 53%
% tubulin recovered in pellet (tubulin [2]; 10 μM [3H]NSC 613241 plus 80 μM nonradiolabeled inhibitor): 95 ± 5.2%
% tubulin recovered in pellet (tubulin [2]; [7]): 37 ± 5.1%
% of the tubulin in polymer pellet (tubulin [2]; 20 μM compound, 10 μM tubulin): about 90%
% of the tubulin in polymer (tubulin [2]; 40 μM compound, 10 μM tubulin): ~100%
stoichiometry of compound to tubulin in the pellets (tubulin [2]; 40 μM compound, 10 μM tubulin): 0.47
maximum stoichiometry of compound incorporation into aberrant polymer (tubulin [2]; 10 μM tubulin): 0.68
stoichiometry of compound to tubulin in the pellets (tubulin [2]; [8]): 0.13
compound incorporated into induced polymers, as little as (tubulin [2]): 0.1–0.2 mol compound/mol of tubulin
spiral formation (centrifugation study, Fig. 7A) (tubulin [3]): minimal
% tubulin in polymer ± SE (tubulin [3]): 0 ± 2%
IC50 values in treated cells (cultured cells): low μM range

Molecule: Cc1c(-c2ccccc2)nn(CC(=O)O)c(=O)c1C#N [NSC 608602]
effect on microtubule assembly (tubulin [5]): no significant effect on microtubule assembly

Molecule: CC[C@]1(O)C[C@@H]2CN(CCc3c([nH]c4ccccc34)[C@@](C(=O)OC)(c3cc4c(cc3OC)N(C)[C@H]3[C@@](O)(C(=O)OC)[C@H](OC(C)=O)[C@]5(CC)C=CCN6CC[C@]43[C@@H]65)C2)C1 [Vinblastine]
inhibition of (−)-rhazinilam aberrant assembly reaction (tubulin [1]): inhibited

Molecule: N#Cc1c(-c2ccccc2)c(-c2ccccc2)nn(Cc2nn[nH]n2)c1=O [NSC 608593]
% tubulin in polymer ± SE (tubulin [3]): 0 ± 1%
